Measurements reported in patent US20230111914A1, “SYNTHETIC TRITERPENOIDS WITH NITROGEN-BASED SUBSTITUENTS AT C-17 AND METHODS OF USE THEREOF” (REATA PHARMACEUTICALS, INC., priority 2019, published 2023).
“And” between values parts separate entries of the source, which are not always exact repeats. Identical values can stand only once. Like-named read-outs stand apart in the source and are kept apart here. Marks after values point to notes of the source that are not given here.

Columns and labels:
[1] = test system: IFNγ-induced NO production in RAW 264.7 cells; experiment: Nitric oxide suppression assay (IFNγ-induced NO production, Griess nitrite readout); format: cell-based, mouse; conditions: for IC50: Mus musculus, RAW264.7, RAW 264.7 cells, read-out: NO IC50
[2] = biological target: T1, CYP3A4 (Homo sapiens, UniProt P08684); experiment: CYP3A4 (midazolam) inhibition in human liver microsomes; format: in vitro ADME; conditions: probe midazolam; human liver microsomes 0.1 mg/mL, midazolam substrate, 1 μM test compound, 37° C. 10 min
T1 construct: containing 0.1 mg/mL human liver microsomes; from tissue; host or cells: human liver microsomes
T1 sequence (P08684 whole entry): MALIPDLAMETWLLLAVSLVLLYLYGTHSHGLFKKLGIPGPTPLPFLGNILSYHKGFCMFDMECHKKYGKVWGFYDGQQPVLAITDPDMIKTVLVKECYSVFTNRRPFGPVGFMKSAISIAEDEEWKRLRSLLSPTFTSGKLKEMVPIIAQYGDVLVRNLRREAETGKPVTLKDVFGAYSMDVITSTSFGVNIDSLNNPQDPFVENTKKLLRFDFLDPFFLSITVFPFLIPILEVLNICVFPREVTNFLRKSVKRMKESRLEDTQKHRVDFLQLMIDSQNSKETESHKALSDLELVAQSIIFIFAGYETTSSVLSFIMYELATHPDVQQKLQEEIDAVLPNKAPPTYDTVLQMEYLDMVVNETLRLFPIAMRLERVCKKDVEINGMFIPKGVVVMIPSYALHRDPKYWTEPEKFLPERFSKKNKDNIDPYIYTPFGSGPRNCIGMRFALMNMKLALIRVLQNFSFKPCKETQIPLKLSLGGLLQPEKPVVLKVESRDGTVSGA
Description: Methods. Several compounds were evaluated for CYP3A4 (midazolam) inhibition in human liver microsomes at 1 μM. CYP3A4 inhibition was tested using an in vitro assay as generally described in Dierks et al. (Drug Metabolism Deposition, 29:23-29, 2001, which is incorporated by reference herein). Each sample, containing 0.1 mg/mL human liver microsomes, […] as substrate, and 1 μM of test compound, was incubated at 37° C. for 10 min. Following incubation, the metabolite 1-hydroxymidazolam was measured using HPLC-MS/MS. Peak areas corresponding to the metabolite of the substrate were recorded. The percent of control activity was then calculated by comparing the peak area obtained in the presence of the test compound to that obtained in the absence of the test compound. Subsequently, the percent inhibition was calculated by subtracting the percent control activity from 100 for each compound.

[3] = test system: AREc32 reporter cell line (luciferase reporter under eight copies of the rat GSTA2 ARE sequence); experiment: AREc32 luciferase reporter activation; format: cell-based, human; conditions: for EC (2-fold): Homo sapiens, Arec32, concentration that increases the luminescence signal 2-fold above vehicle, 19 h treatment, read-out: AREc32 EC2X (Mean ± SD); for AREc32 Relative to CC in Same Experiment (Mean ± SD): average of ratios from three replicate experiments
[4] = 2 h pretreatment, 20 ng/mL interferon gamma 24 h, average of trials per footnote

Compound	NO IC50 Rel. to RTA 402 [1]	times more active (NO IC50) than CC2 relative to RTA 402 [1]	IC50 [1, 4] [nM]	inhibition at 10 min, 1 µM [2] [%]	AREc32 EC2X Relative to RTA 402 (Mean ± SD) [3]	EC (2-fold) [3] [µM]	AREc32 Relative to CC in Same Experiment (Mean ± SD) ([3]; comparison compound CC2)	times more active (NO IC50) than 63236 relative to RTA 402 [1]	times more active (NO IC50) than 63866 relative to RTA 402 [1]	AREc32 Relative to CC in Same Experiment (Mean ± SD) ([3]; comparison compound CC4)	times more active (NO IC50) than CC4 relative to RTA 402 [1]	IC50 ([1]; interferon gamma) [nM]	times more active (NO IC50) than 63229 relative to RTA 402 [1]	times more active (NO IC50) than 63189 relative to RTA 402 [1]
Cc1cn(C[C@]23CCC(C)(C)C[C@H]2[C@H]2C(=O)C=C4[C@@]5(C)C=C(C#N)C(=O)C(C)(C)[C@@H]5CC[C@@]4(C)[C@]2(C)CC3)nn1 [Compound T48]	1.19 fold and 1.19 ± 0.18^e fold	roughly 1.3 times	2.5	29.8	1.3 ± 0.21^g fold	0.0129 ± 0.00143	0.802 ± 0.050							
CC1(C)CC[C@]2(CNC(=O)C3CC3)CC[C@]3(C)[C@H](C(=O)C=C4[C@@]5(C)C=C(C#N)C(=O)C(C)(C)[C@@H]5CC[C@]43C)[C@@H]2C1 [Compound T4]	0.26 fold and 0.26 ± 0.08^h fold		0.51	30.7	0.3 ± 0.08^b fold	0.0032 ± 0.00032		more than 220 times	roughly 4.5 times					
CNC(=O)c1cn([C@]23CCC(C)(C)C[C@H]2[C@H]2C(=O)C=C4[C@@]5(C)C=C(C#N)C(=O)C(C)(C)[C@@H]5CC[C@@]4(C)[C@]2(C)CC3)nn1 [Compound T41]	1.19 ± 0.22^d fold		4.96 ± 1.58	17.1	0.8 ± 0.16^f fold	0.0094 ± 0.00135				0.320 ± 0.037				
CC1(C)CC[C@]2(n3cc(CF)nn3)CC[C@]3(C)[C@H](C(=O)C=C4[C@@]5(C)C=C(C#N)C(=O)C(C)(C)[C@@H]5CC[C@]43C)[C@@H]2C1 [Compound T43]	0.66 fold and 0.66 ± 0.09^d fold		2.68	17	0.7 ± 0.15^f fold	0.0085 ± 0.00055				0.299 ± 0.015	roughly 3.7 times			
CC1(C)CC[C@]2(CN3CCCC3=O)CC[C@]3(C)[C@H](C(=O)C=C4[C@@]5(C)C=C(C#N)C(=O)C(C)(C)[C@@H]5CC[C@]43C)[C@@H]2C1 [Compound T11]	0.58 ± 0.18^f fold		1.08 ± 0.44	12.5	0.5 ± 0.08^d fold	0.0067 ± 0.0017								
CC1(C)CC[C@]2(n3cncn3)CC[C@]3(C)[C@H](C(=O)C=C4[C@@]5(C)C=C(C#N)C(=O)C(C)(C)[C@@H]5CC[C@]43C)[C@@H]2C1 [Compound T33]	1.35 ± 0.26^d fold		5.62 ± 1.81	49	1.2 ± 0.18^f fold	0.0136 ± 0.00131				0.484 ± 0.060				
CC1(C)CC[C@]2(n3ccnc3)CC[C@]3(C)[C@H](C(=O)C=C4[C@@]5(C)C=C(C#N)C(=O)C(C)(C)[C@@H]5CC[C@]43C)[C@@H]2C1 [Compound T37]	1.37 ± 0.26^e fold		3.22 ± 1.52	86.5	2.1 ± 0.50^f fold	0.0243 ± 0.0027				0.878 ± 0.094				
CC1(C)CC[C@]2(Cn3ccnn3)CC[C@]3(C)[C@H](C(=O)C=C4[C@@]5(C)C=C(C#N)C(=O)C(C)(C)[C@@H]5CC[C@]43C)[C@@H]2C1 [Compound T19]	0.93 fold and 0.93 ± 0.22^e fold	roughly 1.6 times	1.11	33.8		0.0084 ± 0.00126	0.522 ± 0.052					1.11		
CC1(C)CC[C@]2(n3cc(C(F)F)nn3)CC[C@]3(C)[C@H](C(=O)C=C4[C@@]5(C)C=C(C#N)C(=O)C(C)(C)[C@@H]5CC[C@]43C)[C@@H]2C1 [Compound T44]	1.07 ± 0.11^d fold		4.39 ± 0.73	29.1	0.9 ± 0.15^f fold	0.0106 ± 0.00083				0.387 ± 0.037				
CC1(C)CC[C@]2(Cn3cccn3)CC[C@]3(C)[C@H](C(=O)C=C4[C@@]5(C)C=C(C#N)C(=O)C(C)(C)[C@@H]5CC[C@]43C)[C@@H]2C1 [Compound T20]	1.93 ± 0.41^e fold		3.28 ± 0.32	13.2		0.0153 ± 0.00084	0.954 ± 0.101							
CC1(C)CC[C@]2(Cn3cnnn3)CC[C@]3(C)[C@H](C(=O)C=C4[C@@]5(C)C=C(C#N)C(=O)C(C)(C)[C@@H]5CC[C@]43C)[C@@H]2C1 [Compound T18]	0.76 fold and 0.76 ± 0.10^e fold	more than twice as active	0.92	46.5	0.6 ± 0.05^g fold	0.0057 ± 0.00044	0.356 ± 0.015							
CC1(C)CC[C@]2(n3cnnn3)CC[C@]3(C)[C@H](C(=O)C=C4[C@@]5(C)C=C(C#N)C(=O)C(C)(C)[C@@H]5CC[C@]43C)[C@@H]2C1 [Compound T36]	0.77 fold and 0.77 ± 0.16^e fold		1.96	52.8	0.5 ± 0.13^f fold	0.0056 ± 0.00059				0.191 ± 0.009	roughly 3.1 times		greater than 98.5 times	
CC1(C)CC[C@]2(n3ccnn3)CC[C@]3(C)[C@H](C(=O)C=C4[C@@]5(C)C=C(C#N)C(=O)C(C)(C)[C@@H]5CC[C@]43C)[C@@H]2C1 [Compound T35]	0.64 fold and 0.64 ± 0.04^e fold		1.3	41.7	0.6 ± 0.18^f fold	0.0071 ± 0.00073				0.262 ± 0.020	~4 times			
CC1(C)CC[C@]2(Cn3ccnc3)CC[C@]3(C)[C@H](C(=O)C=C4[C@@]5(C)C=C(C#N)C(=O)C(C)(C)[C@@H]5CC[C@]43C)[C@@H]2C1 [Compound T17]				31.8	1.6 ± 0.22^g fold	0.0162 ± 0.00085	1.009 ± 0.052							
CC1(C)CC[C@]2(Cn3cncn3)CC[C@]3(C)[C@H](C(=O)C=C4[C@@]5(C)C=C(C#N)C(=O)C(C)(C)[C@@H]5CC[C@]43C)[C@@H]2C1 [Compound T21]	0.57 ± 0.07^e fold		1.18 ± 0.21	18.9	1.1 ± 0.20^g fold	0.0105 ± 0.00165	0.649 ± 0.070							
CC1(C)CC[C@]2(CN3CCC3=O)CC[C@]3(C)[C@H](C(=O)C=C4[C@@]5(C)C=C(C#N)C(=O)C(C)(C)[C@@H]5CC[C@]43C)[C@@H]2C1 [Compound T10]	0.45 ± 0.08^g fold		1.12 ± 0.44	33.2	0.5 ± 0.13^c fold	0.0052 ± 0.00249								
CCC(=O)NC[C@]12CCC(C)(C)C[C@H]1[C@H]1C(=O)C=C3[C@@]4(C)C=C(C#N)C(=O)C(C)(C)[C@@H]4CC[C@@]3(C)[C@]1(C)CC2 [Compound T53]	0.21 fold and 0.21 ± 0.05^e fold		0.38		0.2^e fold	0.0024								more than 19 times
CC1(C)CC[C@]2(N3CCC3=O)CC[C@]3(C)[C@H](C(=O)C=C4[C@@]5(C)C=C(C#N)C(=O)C(C)(C)[C@@H]5CC[C@]43C)[C@@H]2C1 [Compound T38]	1.69 ± 0.84^e fold		4.32 ± 3.51		2.1^e fold	0.0361								
